A value given as a limit tells only on which side of the number the result lay.

The target of the assay is T1, IGF-1R (Homo sapiens, UniProt P08069).
T1 construct: expressed in transfected cells
Put plainly: Example B-2: IGF-1R Assay (PathHunter cell lines, EC80 agonist challenge, chemiluminescent detection). It counts as cell-based. The settings on record: PathHunter cells, compound 60 minutes at 37° C., EC80 agonist 3 hours; read-out: IC50, Biological Activity against IGF-1R (Table B2). The method, boiled down: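 Read-out is PathHunter chemiluminescence, developed for 1 h at room temperature after a 3 h room-temperature EC80 agonist challenge that followed 60 min compound pre-treatment at 37° C (1% vehicle). IC50 comes from % inhibition normalized to EC80 and vehicle controls.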

T1 sequence (P08069 31-1367): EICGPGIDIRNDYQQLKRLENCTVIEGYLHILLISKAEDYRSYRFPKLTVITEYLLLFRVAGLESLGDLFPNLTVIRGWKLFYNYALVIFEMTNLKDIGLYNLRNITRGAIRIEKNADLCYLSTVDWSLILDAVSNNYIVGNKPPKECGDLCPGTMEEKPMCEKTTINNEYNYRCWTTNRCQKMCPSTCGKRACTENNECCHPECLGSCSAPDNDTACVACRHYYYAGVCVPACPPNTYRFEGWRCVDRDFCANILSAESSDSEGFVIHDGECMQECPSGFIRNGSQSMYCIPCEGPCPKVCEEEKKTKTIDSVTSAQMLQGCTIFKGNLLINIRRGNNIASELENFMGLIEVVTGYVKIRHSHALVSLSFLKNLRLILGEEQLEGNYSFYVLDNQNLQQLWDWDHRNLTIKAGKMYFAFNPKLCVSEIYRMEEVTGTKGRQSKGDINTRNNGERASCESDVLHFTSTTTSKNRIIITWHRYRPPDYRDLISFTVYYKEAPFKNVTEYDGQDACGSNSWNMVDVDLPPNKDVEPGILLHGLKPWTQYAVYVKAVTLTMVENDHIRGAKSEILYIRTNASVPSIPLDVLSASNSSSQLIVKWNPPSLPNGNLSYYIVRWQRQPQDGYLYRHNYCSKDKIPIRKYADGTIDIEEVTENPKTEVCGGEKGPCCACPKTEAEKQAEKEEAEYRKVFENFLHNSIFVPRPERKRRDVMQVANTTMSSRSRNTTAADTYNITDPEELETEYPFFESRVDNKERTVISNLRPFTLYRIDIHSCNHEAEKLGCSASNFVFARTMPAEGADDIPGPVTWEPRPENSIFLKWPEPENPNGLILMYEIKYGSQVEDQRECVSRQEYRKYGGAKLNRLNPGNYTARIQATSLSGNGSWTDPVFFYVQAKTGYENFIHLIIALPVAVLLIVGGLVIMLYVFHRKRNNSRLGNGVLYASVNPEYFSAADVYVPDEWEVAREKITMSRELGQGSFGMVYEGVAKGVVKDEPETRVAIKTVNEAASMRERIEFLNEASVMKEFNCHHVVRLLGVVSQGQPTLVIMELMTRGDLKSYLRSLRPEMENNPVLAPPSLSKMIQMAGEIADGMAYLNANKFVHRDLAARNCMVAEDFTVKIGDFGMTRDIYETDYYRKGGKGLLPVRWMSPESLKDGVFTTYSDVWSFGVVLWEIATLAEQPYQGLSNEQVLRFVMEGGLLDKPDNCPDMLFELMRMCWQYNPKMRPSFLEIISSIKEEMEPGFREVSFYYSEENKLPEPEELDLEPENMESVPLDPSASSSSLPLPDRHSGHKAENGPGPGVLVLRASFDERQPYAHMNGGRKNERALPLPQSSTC

Consider `COCC1(Nc2cc(CN3C(=O)N(c4ccc(C5(C(F)(F)F)CC5)cc4)C(=O)C3(C)C)ccn2)CC1` [Compound 159, 1-((2-((1-(methoxymethyl)cyclopropyl)amino)pyridin-4-yl)methyl)-5,5-dimethyl-3-(4-(1-(trifluoromethyl)cyclopropyl)phenyl) imidazolidine-2,4-dione], for which the IC50 was at most 500 nM.

With `CC1(C)C(=O)N(c2ccc(C3(C(F)(F)F)CC3)cc2)C(=O)N1Cc1ccnc(NCC2(C#N)CC2)c1` [Compound 160, 1-(((4-((5,5-dimethyl-2,4-dioxo-3-(4-(1-(trifluoromethyl)cyclopropyl)phenyl)imidazolidin-1-yl)methyl)pyridin-2-yl)amino)methyl)cyclopropane-1-carbonitrile], the IC50 is at most 500 nM.

In the case of `CC1(C)C(=O)N(c2ccc(C3(C(F)(F)F)CC3)cc2)C(=O)N1Cc1ccnc(NC2CCc3cn[nH]c3C2)c1` (stereo not drawn) [Compound 161, 5,5-dimethyl-1-((2-((4,5,6,7-tetrahydro-1H-indazol-6-yl)amino)pyridin-4-yl)methyl)-3-(4-(1-(trifluoromethyl)cyclopropyl)phenyl) imidazolidine-2,4-dione], the IC50 was at most 500 nM.

For the molecule `CC(C)(C#N)c1ccc(N2C(=O)N(Cc3ccnc(N[C@H]4[C@@H]5COC[C@@H]54)c3)C(C)(C)C2=O)cc1` [Compound 162, 2-(4-(3-((2-(((1R,5S,6r)-3-oxabicyclo[3.1.0]hexan-6-yl)amino)pyridin-4-yl)methyl)-4,4-dimethyl-2,5-dioxoimidazolidin-1-yl)phenyl)-2-methylpropanenitrile], the IC50 is at most 500 nM.

Take `COC(C)CNc1cc(CN2C(=O)N(c3ccc(C4(C(F)(F)F)CC4)cc3)C(=O)C2(C)C)ccn1` (stereo not drawn) [Compound 163, 1-((2-((2-methoxypropyl)amino)pyridin-4-yl)methyl)-5,5-dimethyl-3-(4-(1-(trifluoromethyl)cyclopropyl)phenyl) imidazolidine-2,4-dione]: the IC50 was at most 500 nM.

Regarding `CC1(C)C(=O)N(c2ccc3c(c2)N(S(C)(=O)=O)CC32CC2(C)C)C(=O)N1Cc1ccnc(N[C@H]2[C@@H]3COC[C@@H]32)c1` (stereo partly drawn) [Compound 164, 1-((2-(((1R,5S,6r)-3-oxabicyclo[3.1.0]hexan-6-yl)amino)pyridin-4-yl)methyl)-3-(2,2-dimethyl-1′-(methylsulfonyl)spiro[cyclopropane-1,3′-indolin]-6′-yl)-5,5-dimethylimidazolidine-2,4-dione], the IC50 was at most 500 nM.

Take `CC(Nc1cc(CN2C(=O)N(c3ccc(C4(C(F)(F)F)CC4)cc3)C(=O)C2(C)C)ccn1)c1cccnc1` (stereo not drawn) [Compound 165, 5,5-dimethyl-1-((2-((1-(pyridin-3-yl)ethyl)amino)pyridin-4-yl)methyl)-3-(4-(1-(trifluoromethyl)cyclopropyl)phenyl)imidazolidine-2,4-dione]: the IC50 was at most 500 nM.

On to `CC1(C)C(=O)N(c2ccc(C3(C(F)(F)F)CC3)cc2)C(=O)N1Cc1ccnc(NS(C)(=O)=O)c1` [Compound 166, N-(4-((5,5-dimethyl-2,4-dioxo-3-(4-(1-(trifluoromethyl)cyclopropyl)phenyl)imidazolidin-1-yl)methyl)pyridin-2-yl)methanesulfonamide], for which the concentration for half-maximal inhibition (IC50) was 500 to 2000 nM.

For `CC(Nc1cc(CN2C(=O)N(c3ccc(C4(C(F)(F)F)CC4)cc3)C(=O)C2(C)C)ccn1)c1cnn(C)c1` (stereo not drawn) [Compound 167, 5,5-dimethyl-1-((2-((1-(1-methyl-1H-pyrazol-4-yl)ethyl)amino)pyridin-4-yl)methyl)-3-(4-(1-(trifluoromethyl)cyclopropyl)phenyl) imidazolidine-2,4-dione], the 50% inhibitory concentration (IC50) was at most 500 nM.

In the case of `CC(Nc1cc(CN2C(=O)N(c3ccc(C4(C(F)(F)F)CC4)cc3)C(=O)C2(C)C)ccn1)c1cnccn1` (stereo not drawn) [Compound 168, 5,5-dimethyl-1-((2-((1-(pyrazin-2-yl)ethyl)amino)pyridin-4-yl)methyl)-3-(4-(1-(trifluoromethyl)cyclopropyl)phenyl) imidazolidine-2,4-dione], the IC50 is at most 500 nM.

Consider `Cn1cc(CNc2cc(CN3C(=O)N(c4ccc(C5(C(F)(F)F)CC5)cc4)C(=O)C3(C)C)ccn2)cn1` [Compound 169, 5,5-dimethyl-1-((2-(((1-methyl-1H-pyrazol-4-yl)methyl)amino)pyridin-4-yl)methyl)-3-(4-(1-(trifluoromethyl)cyclopropyl)phenyl) imidazolidine-2,4-dione], for which the IC50 was at most 500 nM.

For `CC1(C)C(=O)N(c2ccc(C3(C#N)CC3(C)C)cc2)C(=O)N1Cc1ccnc(N[C@H]2[C@@H]3COC[C@@H]32)c1` (stereo partly drawn) [Compound 170, 1-(4-(3-((2-(((1R,5S,6r)-3-oxabicyclo[3.1.0]hexan-6-yl)amino)pyridin-4-yl)methyl)-4,4-dimethyl-2,5-dioxoimidazolidin-1-yl)phenyl)-2,2-dimethylcyclopropane-1-carbonitrile], the IC50 was at most 500 nM.

`CC1(C)C(=O)N(c2ccc(C3(C(F)(F)F)CC3)cc2)C(=O)N1Cc1ccnc(NCc2cn[nH]c2)c1` [Compound 171, 1-((2-(((1H-pyrazol-4-yl)methyl)amino)pyridin-4-yl)methyl)-5,5-dimethyl-3-(4-(1-(trifluoromethyl)cyclopropyl)phenyl) imidazolidine-2,4-dione]: the IC50 was at most 500 nM.

On to `CNS(=O)(=O)c1ccc(CNc2cc(CN3C(=O)N(c4ccc(C5(C(F)(F)F)CC5)cc4)C(=O)C3(C)C)ccn2)cc1` [Compound 172, 4-(((4-((5,5-dimethyl-2,4-dioxo-3-(4-(1-(trifluoromethyl)cyclopropyl)phenyl)imidazolidin-1-yl)methyl)pyridin-2-yl)amino)methyl)-N-methylbenzenesulfonamide], for which the IC50 is at most 500 nM.

For `CC1(C)C(=O)N(c2ccc(C3(C(F)(F)F)CC3)cc2)C(=O)N1Cc1ccnc(NCc2ncc[nH]2)c1` [Compound 173, 1-((2-(((1H-imidazol-2-yl)methyl)amino)pyridin-4-yl)methyl)-5,5-dimethyl-3-(4-(1-(trifluoromethyl)cyclopropyl)phenyl) imidazolidine-2,4-dione], the half-maximal inhibitory concentration (IC50) was at most 500 nM.

As for `CC1(C)C(=O)N(c2ccc(C3(C(F)(F)F)CC3)cc2)C(=O)N1Cc1ccnc(NCc2nnc[nH]2)c1` [Compound 174, 1-((2-(((4H-1,2,4-triazol-3-yl)methyl)amino)pyridin-4-yl)methyl)-5,5-dimethyl-3-(4-(1-(trifluoromethyl)cyclopropyl)phenyl) imidazolidine-2,4-dione], the 50% inhibitory concentration (IC50) is at most 500 nM.

For the molecule `CC1(C)C(=O)N(c2ccc(C3(C(F)(F)F)CC3)cc2)C(=O)N1Cc1ccnc(NCc2nc3ccccn3n2)c1` [Compound 175, 1-((2-(([1,2,4]triazolo[1,5-a]pyridin-2-ylmethyl)amino)pyridin-4-yl)methyl)-5,5-dimethyl-3-(4-(1-(trifluoromethyl)cyclopropyl)phenyl) imidazolidine-2,4-dione], the IC50 was at most 500 nM.

As for `Cn1cncc1CNc1cc(CN2C(=O)N(c3ccc(C4(C(F)(F)F)CC4)cc3)C(=O)C2(C)C)ccn1` [Compound 176, 5,5-dimethyl-1-((2-(((1-methyl-1H-imidazol-5-yl)methyl)amino)pyridin-4-yl)methyl)-3-(4-(1-(trifluoromethyl)cyclopropyl)phenyl) imidazolidine-2,4-dione], the IC50 is at most 500 nM.

For orientation: IC50 means the concentration at which inhibition is half-maximal.

(Values after patent publication US20250145585A1, “HETEROCYCLIC INHIBITORS OF IGF-1R FOR TREATMENT OF DISEASE” (HORIZON THERAPEUTICS IRELAND DAC, priority 2023, published 2025).)
